Ends that are not written are not given here.
These sequences were tested on E. coli strain BL21 (and, in some cases, ATCC25922). Conditions: BL21, 24 h.

Sequence | MIC [µM]
RRWWRWWRGSYGSVYGSPGFWQRRIRRWRR [UGI-7] | 5 to 10
QPKRLEELLEKLKSLEGSKAHEKLHDWTRK [UGK-49] | >20
IERSRNLDWYKGPTLLDALKNLNEGKRPSDK [I31LB] | >20
RLPEAFQWQRRLRRWRRPDSPGRRWWRWWR [UGK-5] | 5 to 10
KKLPKEILKILGSGYGSLPKEILKILELKK [Gen-1] | 5 to 10
RLPKAFQWQRRLRRWRRPYSPGRRWWRWWR [UGK-1] | 5 to 10
KRPEELLQKLKSLEGSKAHLQHHDWTSK [UGK-41] | >20
FWQRRIRRWRRGSGYGSPGKKLIKKILKIL [30P-2] | 1.25 to 2.5
KPRGSEQLQELTRRLLDSPLERRWWEWMRR [UGK-29] | >20
FQWQRNIRKVR [11P-2] | >20
LPKRLEELLQKLKSLEGSKAHEKLHDWTRK [UGK-45] | >20
KPRLSEQLQELTRRLLDSPLERRWWEWWRR [UGK-33] | >20
IERSTNLDWYKGPTLL [16P-1] | >20
FWQRRIRRWRR [11P-3] | >20
KPRGSEQLQELTRRLLDSPLERRFWQWMRR [UGK-37] | >20
FWQRRIRRWRRGSGYGSPGRRWWRWWR [27P-2] | 5 to 10
RRWWRWWR [8P-1] | >20
KKLIKKILKIL [11P-1] | 10 to 20
RLPEAFQWQRNIRKVRRPDSPGRRWWRWWR [UGK-9] | 5 to 10
RRWWRWWRGSGYGSPGFWQRRIRRWRR [27P-1] | >20

The sequences below were run on E. coli BL21. Conditions: BL21, 24 h.

Sequence | IC50 [µM] | IC99 (~MIC) [µM]
KKLPKEILKILGSGYGSLPKEILKILELKK [Gen-1] | 10.22 ± 0.07 | 11.4 ± 0.07
FWQRRIRRWRR [11P-3] | 49 ± 2.79 | 160.80 ± 3.25
KKLIKKILKIL [11P-1] | 12.9 ± 0.62 | 29.38 ± 0.75
